Source: patent US20240343761A1, “APELINERGIC MACROCYCLES AND USES THEREOF” (priority 2021, published 2024)
Like-named read-outs stand apart in the source and are kept apart here. Bridge positions count the residues as written; N and C are the ends. Square brackets hold non-standard residues; d marks the D form. Ends that are not written are not given here. Peptide text beside a SMILES is read from it. Alnb = Nγ-allyl-Nγ-nosyl-α,γ-diamino-butanoic acid; Oic = O=C(O)[C@@H]1C[C@@H]2CCCC[C@@H]2N1; AllylGly = C=CC[C@H](N)C(=O)O; pGlu = O=C1CC[C@@H](C(=O)O)N1; Nle = CCCC[C@H](N)C(=O)O; B1 = not defined here

Experiments:
[1] = Rat plasma stability (half-life in vitro); format: in vitro ADME; settings: male, Sprague-Dawley, rat, plasma; for half-life at 0.182 mM: Table I, 37° C., up to 24 h
Method: Plasma was obtained from male Sprague-Dawley rats by collecting blood in heparin tube and centrifugating at 13,000 rpm to remove blood cells. The isolated plasma was stored at −80° C. and thawed right before the test. In 96-well plate, 6 μL of peptide solution at 1 mM was incubated with 27 μL of plasma at 37° C. in an oven equipped with orbital shaker. Tightly fitted caps were used to seal the wells to avoid water evaporation during incubation. […] A 96-well UPLC plate was put at the bottom to collect the samples. Both plates were centrifuged at 500 g for 10 min at 4° C. to accelerate the filtration. […] The quantity of remaining peptide was plotted into an exponential one-phase decay curve using GraphPad Prism 8 which allowed to calculate peptide half-life. The results were presented as mean±SEM of at least 3 independent experiments, each done in simplicate.
The percentage of remaining analogue was calculated by doing the ratio between AU of compound and AUC of internal standard. Half-lives were extrapolated from curves.

human APJ (hAPJ) = target: T1, human APJ (hAPJ) (Homo sapiens, UniProt P35414); assay: Competitive radioligand binding ([125I][Nle75,Tyr77][Pyr1]-Ape13) on membranes of HEK293 cells stably expressing human APJ; settings: Ki binding
T1 construct: expressed in transfected cells; cell membranes
T1 sequence (P35414 1-380): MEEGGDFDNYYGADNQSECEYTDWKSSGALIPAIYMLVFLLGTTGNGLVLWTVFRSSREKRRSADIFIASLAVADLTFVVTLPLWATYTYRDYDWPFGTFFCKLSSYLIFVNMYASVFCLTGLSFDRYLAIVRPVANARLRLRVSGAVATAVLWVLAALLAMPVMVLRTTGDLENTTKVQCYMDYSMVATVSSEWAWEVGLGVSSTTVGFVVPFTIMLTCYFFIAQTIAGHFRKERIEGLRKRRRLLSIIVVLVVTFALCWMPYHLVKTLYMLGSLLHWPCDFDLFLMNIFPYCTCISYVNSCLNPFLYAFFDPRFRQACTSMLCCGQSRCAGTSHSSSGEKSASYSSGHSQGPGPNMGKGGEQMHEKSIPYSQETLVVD
Method: HEK293 cells stably expressing YFP-tagged human APJ were cultured in DMEM medium supplemented with 10% FBS, at 37° C. under a humid atmosphere maintaining 5% CO2. Antibiotic G418 (400 μg/mL) was added to maintain a selection pressure for APJ-expressing cells while penicillin/streptomycin (0.1%) were used to prevent bacterial contamination.
Binding experiments were performed on cell membranes of HEK293 stably expressing the YFP-tagged human APJ receptor. Cells were frozen at −80° C. for storage and quickly thawed right before the experiments (1 min at 37° C.). […] The precipitate (cell membranes) was suspended in binding buffer (50 mM Tris-HCl, 0.2% BSA, pH 7.4). Binding assays were run in 96-well plates. […] (820 Ci/mmol)^3 and test ligand with a range of concentrations from 10^−1 to 10^−11 M in a total volume of 200 μL for 1 h at room temperature.
The incubation mixtures were filtered through a glass fiber filter (Millipore, pre-absorbed of PEI 0.5% for 2 h at 4° C.) to remove unbound ligands, and the filter membranes were washed three times with 170 μL cold binding buffer (4° C.). The γ emission was measured using a 1470 Wizard γ-counter from PerkinElmer (Waltham, USA) (80% efficiency).

hAPJ receptor [2] = target: T2, hAPJ receptor (Homo sapiens, UniProt P35414); assay: BRET-based β-arrestin2 recruitment assay in HEK293 cells; format: cell-based
T2 construct: expressed in transfected cells; host or cells: HEK293, transient transfection with PEI
T2 sequence (P35414 1-380): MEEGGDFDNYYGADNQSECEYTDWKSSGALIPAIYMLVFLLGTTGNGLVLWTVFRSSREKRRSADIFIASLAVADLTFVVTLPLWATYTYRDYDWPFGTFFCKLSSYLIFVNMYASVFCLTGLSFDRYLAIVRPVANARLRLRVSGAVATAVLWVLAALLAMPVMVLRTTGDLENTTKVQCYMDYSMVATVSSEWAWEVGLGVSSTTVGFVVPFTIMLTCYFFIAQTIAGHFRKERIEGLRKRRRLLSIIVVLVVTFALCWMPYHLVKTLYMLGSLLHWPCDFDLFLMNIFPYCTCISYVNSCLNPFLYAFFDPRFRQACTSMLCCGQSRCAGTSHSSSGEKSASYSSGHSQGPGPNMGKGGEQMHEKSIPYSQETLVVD
Outline: (§1)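 HEK293 cells in HBSS stimulated with analogs from 10^−5 to 10^−11 M, 5 min at 37 °C (Gαi1) or 30 min at room temperature (β-arrestin2).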

hAPJ receptor [3] = target: T2, hAPJ receptor; assay: BRET-based Gαi1 activation assay in HEK293 cells; format: cell-based
Outline: as §1

[4] = target: T3, human APJ (transfected HEK293 cells, Gαi1 BRET assay) (human, UniProt P35414 1-380); assay: cell-based or functional assay
T3 sequence (looked up): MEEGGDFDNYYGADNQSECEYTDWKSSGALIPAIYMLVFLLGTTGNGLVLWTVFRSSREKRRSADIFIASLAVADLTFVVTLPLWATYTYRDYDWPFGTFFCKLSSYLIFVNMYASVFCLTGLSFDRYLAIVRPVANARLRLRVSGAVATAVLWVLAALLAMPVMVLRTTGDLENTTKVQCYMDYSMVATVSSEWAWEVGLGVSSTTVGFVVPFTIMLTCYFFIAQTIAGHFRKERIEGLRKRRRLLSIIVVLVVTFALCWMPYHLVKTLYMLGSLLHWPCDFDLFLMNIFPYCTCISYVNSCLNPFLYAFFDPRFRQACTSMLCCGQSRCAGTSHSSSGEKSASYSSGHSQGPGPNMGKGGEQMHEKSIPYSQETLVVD

[5] = target: T3, human APJ (transfected HEK293 cells, …); assay: cell-based or functional assay; remark: listed apart in the source
[6] = target: T4, YFP-tagged human APJ receptor (human, UniProt P35414 1-380); assay: competitive radioligand binding, HEK293-hAPJ membranes
T4 construct: whole, on cells; also called hAPJ; APJ WT; not shown: YFP tag
T4 sequence (looked up): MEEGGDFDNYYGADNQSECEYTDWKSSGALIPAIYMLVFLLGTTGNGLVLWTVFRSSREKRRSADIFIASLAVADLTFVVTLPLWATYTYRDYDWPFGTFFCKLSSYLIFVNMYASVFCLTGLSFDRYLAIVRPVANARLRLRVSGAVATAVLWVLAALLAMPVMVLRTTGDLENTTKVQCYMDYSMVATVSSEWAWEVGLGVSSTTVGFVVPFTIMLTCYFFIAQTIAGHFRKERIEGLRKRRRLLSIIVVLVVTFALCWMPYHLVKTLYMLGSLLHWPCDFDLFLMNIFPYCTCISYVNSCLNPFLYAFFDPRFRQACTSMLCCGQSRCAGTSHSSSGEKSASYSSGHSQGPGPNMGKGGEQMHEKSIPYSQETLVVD

[7] = target: T4, YFP-tagged human APJ receptor; assay: as above; remark: listed apart in the source

For CC(C)C[C@@H]1NC(=O)[C@H](CCCNC(=N)N)NC(=O)[C@@H](N)CC=CC[C@@H](C(=O)N[C@@H](CCCCN)C(=O)NCC(=O)N2CCC[C@H]2C(=O)N[C@@H](C)C(=O)O)NC(=O)[C@H](CO)NC1=O [Compound 34, NH2-c[X-R-L-S-X]c-K-G-P-Ala] (H-[AllylGly]RLS[AllylGly]KGPA-OH; staple 1-5), the half-life at 0.182 mM ([1]; rat plasma) was 48 ± 18 min and the Ki (human APJ (hAPJ)) was > 10000 nM.

CC(C)C[C@@H]1NC(=O)[C@H](CCCNC(=N)N)NC(=O)[C@@H](N)CC=CC[C@@H](C(=O)N[C@@H](CCCCN)C(=O)NCC(=O)N2CCC[C@H]2C(=O)N[C@@H](Cc2cccc3ccccc23)C(=O)O)NC(=O)[C@H](CO)NC1=O [Compound 35, NH2-c[X-R-L-S-X]c-K-G-P-1Nal] gave a half-life at 0.182 mM ([1]; rat plasma) of 18 ± 6 min.

CC(C)C[C@@H]1NC(=O)[C@H](CCCNC(=N)N)NC(=O)[C@@H](N)CC=CC[C@@H](C(=O)N[C@@H](CCCCN)C(=O)NCC(=O)N2CCC[C@H]2C(=O)N[C@@H](Cc2ccc3ccccc3c2)C(=O)O)NC(=O)[C@H](CO)NC1=O [Compound 36, NH2-c[X-R-L-S-X]c-K-G-P-2Nal] gave a half-life at 0.182 mM ([1]; rat plasma) of 24 ± 6 min.

With CC(C)C[C@@H]1NC(=O)[C@H](CCCNC(=N)N)NC(=O)[C@@H](N)CC=CC[C@@H](C(=O)N[C@@H](CCCCN)C(=O)NCC(=O)N2CCC[C@H]2C(=O)N[C@@H](Cc2ccc(OCc3ccccc3)cc2)C(=O)O)NC(=O)[C@H](CO)NC1=O [Compound 37, NH2-c[X-R-L-S-X]c-K-G-P-TyrOBn] the half-life at 0.182 mM ([1]; rat plasma) was 30 ± 6 min.

CC(C)C[C@@H]1NC(=O)[C@H](CCCNC(=N)N)NC(=O)[C@@H](N)CC=CC[C@@H](C(=O)N[C@@H](CCCCN)C(=O)NCC(=O)N2CCC[C@H]2C(=O)N[C@@H](Cc2ccc(OCc3ccccc3)c(C3CCCC3)c2)C(=O)O)NC(=O)[C@H](CO)NC1=O [Compound 38, NH2-c[X-R-L-S-X]c-K-G-P-cypTyr(OBn)] showed a half-life at 0.182 mM ([1]; rat plasma) of 678 ± 60 min.

For CCCC[C@H](NC(=O)[C@@H]1CCC(=O)NCCCC[C@H](N)C(=O)N[C@@H](CCCNC(=N)N)C(=O)N[C@@H](CCCNC(=N)N)C(=O)N1)C(=O)N[C@H]1CSSC[C@@H](C(=O)N[C@@H](CCCNC(=N)N)C(=O)N[C@H](C(=O)N2CCC[C@H]2C(=O)N[C@@H](Cc2ccccc2)C(=O)N2CCC[C@H]2C(=O)O)C(C)C)NC(=O)[C@H](Cc2c[nH]cn2)NC(=O)[C@H](CC(C)C)NC1=O [Compound 79, c[K-R-R-E]-Nle-c[C-L-H-C]-R-V-P-F-P] (H-KRRE[Nle]CLHCRVPFP-OH; lactam 1-4; disulfide 6-9), the EC50 (hAPJ receptor [2]) was 51 ± 3 nM, the EC50 (hAPJ receptor [3]) was 4 ± 0.8 nM and the half-life at […] ([1]; Table III, rat plasma, read-out: Half-life in vitro (converted)) was > 1020 min.

With CCCC[C@H](NC(=O)[C@@H]1CCCN1C(=O)CNC(=O)[C@H](CCCCN)NC(=O)[C@@H]1CC=CC[C@H](NC(=O)[C@H](CCCNC(=N)N)NC(=O)[C@@H]2CCC(=O)N2)C(=O)N[C@@H](CCCNC(=N)N)C(=O)N[C@@H](CC(C)C)C(=O)N[C@@H](CO)C(=O)N1)C(=O)N1CCC[C@H]1C(=O)N[C@@H](Cc1ccccc1)C(=O)O [Compound 97, Pyr-R-c[X-R-L-S-X]c-K-G-P-Nle-P-F, reference compound] the Emax (hAPJ receptor [2]; HEK293, Table V, read-out: ß-arr2 Emax) was 98%, the Emax (hAPJ receptor [3]; HEK293, Table V, read-out: Gαi1 Emax) was 101% and the half-life at […] ([1]; t1/2 in rat plasma) was 120 to 300 min.

With [pGlu]R[AllylGly]RLS[Alnb]KGP[Nle]PF (staple 3-7) [Compound 16 (KT01-123)] the “Gαi1 Emax (%)” value [4] was 102%.

With [pGlu]RRE[Nle]PKHSRVPFP (lactam 4-7) [Compound 75 (ABB01-105)] the “EC50 Gail” value [5] was 19 nM and the Ki [6] was 59 nM.

In the case of [pGlu]RRSEPLHKRV[Oic]FP (lactam 5-9) [Compound 78 (AM03-67)], the “EC50 Gail” value [5] is reported as 24 nM and the Ki [6] is reported as 173 nM.

With H-[AllylGly]RLS[AllylGly]KGP[Nle]PF (staple 1-5) [Compound 20 (KT01-100)] the “Gαi1 Emax (%)” value [4] was 100%.

Molecule [pGlu]RRSKPLHERVPFP (lactam 5-9) [Compound 76 (AM03-40)] has a Ki [6] of 119 nM.

In the case of [pGlu]R[AllylGly]RLS[AllylGly]KGP[Nle]PF (staple 3-7) [Compound 97], the “Gαi1 Emax (%)” value [4] is reported as 101%.

In the case of Ac-KFRRQRPRLEHKKP[Nle]P[B1] (lactam 10-13; reading uncertain) [Compound 67 (KT02-18)], the Ki [7] is reported as 12 nM.
